In US20240150338A1, “COMPOUNDS AND USE THEREOF FOR TREATMENT OF NEURODEGENERATIVE, DEGENERATIVE AND METABOLIC DISORDERS” (University of Florida Research Foundation, Incorporated, priority 2021, published 2024):

Legend:
[1] = tested on: PK1 neuroblastoma cells exposed to TPrP; assay: cells; assay type: cell-based; settings: Neuroblastoma cell, 96 h, read-out: TPrP EC50
[2] = Microsomal stability assay; assay type: in vitro ADME; settings: 1 mg/ml human hepatic microsomes, 37° C., half-life by LC-MS/MS; yes = stability ≥15 minutes
Protocol: The metabolic stability of some test compounds was determined in hepatic human and mouse microsomes. The compound was incubated with 1 mg/ml human or mouse hepatic microsomes at 37° C. with continuous shaking. Aliquots were removed at various time points between 5 minutes and 2 hours and acetonitrile was added to quench the reactions and precipitate the proteins. Samples were then centrifuged through 0.45 μm filter plates and half-lives were determined by LC-MS/MS.

O=S(=O)(O)c1ccc(Nc2nc(-c3ccnc(Cl)c3)c(CO)s2)cc1 [SR-33527, 4-((4-(2-Chloropyridin-4-yl)-5-(hydroxymethyl)thiazol-2-yl)amino)benzenesulfonic acid]
EC50 [1]: 160 nM
Stabilty in human microsomes ≥ 15 minutes [2]: yes

NS(=O)(=O)c1ccc(Nc2nc(-c3ccc(S(=O)(=O)Nc4ccccc4)cc3)c(CO)s2)cc1 [SR-34773, 4-(5-(Hydroxymethyl)-2-((4-sulfamoylphenyl)amino)thiazol-4-yl)-N-phenylbenzenesulfonamide]
EC50 [1]: 300 nM
Stabilty in human microsomes ≥ 15 minutes [2]: yes

COc1cccc(-c2csc(Nc3ccc(S(C)(=O)=O)cc3)n2)c1 [SR-35788, 4-(3-Methoxyphenyl)-N-(4-(methylsulfonyl)phenyl)thiazol-2-amine]
EC50 [1]: 170 nM
Stabilty in human microsomes ≥ 15 minutes [2]: yes

CNS(=O)(=O)c1ccc(-c2csc(Nc3ccc(S(C)(=O)=O)c(Cl)c3)n2)cc1 [SR-35736, 4-(2-((3-Chloro-4-(methylsulfonyl)phenyl)amino)thiazol-4-yl)-N-methylbenzenesulfonamide]
EC50 [1]: 5 nM
Stabilty in human microsomes ≥ 15 minutes [2]: yes

O=S(=O)(O)c1ccc(Nc2nc(-c3ccncc3)cs2)cc1 [SR-33785, 4-((4-(Pyridin-4-yl)thiazol-2-yl)amino)benzenesulfonic acid]
EC50 [1]: 40 nM
Stabilty in human microsomes ≥ 15 minutes [2]: yes

Cc1cc(-c2nc(Nc3ccc(S(N)(=O)=O)cc3)sc2CO)ccn1 [SR-33524, 4-((5-(Hydroxmethyl)-4-(2-methylpyridin-4-yl)thiazol-2-yl)amino)benzenesulfonamide]
EC50 [1]: 60 nM
Stabilty in human microsomes ≥ 15 minutes [2]: yes

CC(C)NS(=O)(=O)c1ccc(-c2csc(Nc3ccc(S(N)(=O)=O)cc3)n2)cc1 [SR-34770, N-isopropyl-4-(2-((4-sulfamoylphenyl)amino)thiazol-4-yl)benzenesulfonamide]
EC50 [1]: 300 nM
Stabilty in human microsomes ≥ 15 minutes [2]: yes

Cc1cc(-c2nc(Nc3ccc(S(N)(=O)=O)cc3)sc2CO)cc(C)n1 [SR-33798, 4-((4-(2,6-Dimethylpyridin-4-yl)-5-(hydroxymethyl)thiazol-2-yl)amino)benzenesulfonamide]
EC50 [1]: 20 nM
Stabilty in human microsomes ≥ 15 minutes [2]: yes

Cc1cc(-c2csc(Nc3ccc(S(=O)(=O)O)cc3)n2)ccn1 [SR-33126, 4-((4-(2-Methylpyridin-4-yl)thiazol-2-Yl)amino)benzenesulfonic acid]
EC50 [1]: 25 nM
Stabilty in human microsomes ≥ 15 minutes [2]: yes

Cc1cc(-c2csc(Nc3ccc(S(C)(=O)=O)c(C(F)(F)F)c3)n2)cc(C)n1 [SR-34984, 4-(2,6-Dimethylpyridin-4-yl)-N-(4-(methylsulfonyl)-3-(trifluoromethyl)phenyl)thiazol-2-amine]
EC50 [1]: 60 nM
Stabilty in human microsomes ≥ 15 minutes [2]: yes

Cc1cc(-c2nc(Nc3ccc(S(C)(=O)=O)cc3)sc2CO)cc(C)n1 [SR-33794, (4-(2,6-Dimethylpyridin-4-yl)-2-((4-(methylsulfonyl)phenyl)amino)thiazol-5-yl)methanol]
EC50 [1]: 70 nM
Stabilty in human microsomes ≥ 15 minutes [2]: yes

Cc1cc(-c2nc(Nc3ccc(S(=O)(=O)O)cc3)sc2CO)ccn1 [SR-33526, 4-((5-(Hydroxymethyl)-4-(2-methylpyridin-4-yl)thiazol-2-yl)amino)benzenesulfonic acid]
EC50 [1]: 150 nM
Stabilty in human microsomes ≥ 15 minutes [2]: yes

CNS(=O)(=O)c1ccc(-c2csc(Nc3ccc(CS(C)(=O)=O)cc3)n2)cc1 [SR-35727, N-methyl-4-(2-((4-((methylsulfonyl)methyl)phenyl)amino)thiazol-4-yl)benzenesulfonamide]
EC50 [1]: 18 nM
Stabilty in human microsomes ≥ 15 minutes [2]: yes

NS(=O)(=O)c1ccc(Nc2nc(-c3ccnc(Cl)c3)cs2)cc1 [SR-33125, 4-((4-(2-Chloropyridin-4-yl)thiazol-2-yl)amino)benzenesulfonamide]
EC50 [1]: 35 nM
Stabilty in human microsomes ≥ 15 minutes [2]: yes

CC(C)NS(=O)(=O)c1ccc(-c2nc(Nc3ccc(S(N)(=O)=O)cc3)sc2CO)cc1 [SR-34776, 4-(5-(Hydroxymethyl)-2-((4-sulfamoylphenyl)amino)thiazol-4-yl)-N-isopropylbenzenesulfonamide]
EC50 [1]: 100 nM
Stabilty in human microsomes ≥ 15 minutes [2]: yes

NS(=O)(=O)c1ccc(Nc2nc(-c3ccncc3)c(CO)s2)cc1 [SR-28550, 4-((5-(Hydroxymethyl)-4-(pyridin-4-yl)thiazol-2-yl)amino)benzenesulfonamide]
EC50 [1]: 70 nM
Stabilty in human microsomes ≥ 15 minutes [2]: yes

CS(=O)(=O)c1ccc(-c2csc(Nc3ccc(S(N)(=O)=O)cc3)n2)cc1 [SR-35729, 4-((4-(4-(Methylsulfonyl)phenyl)thiazol-2-yl)amino)benzenesulfonamide]
EC50 [1]: 1.6 nM
Stabilty in human microsomes ≥ 15 minutes [2]: yes

CS(=O)(=O)c1ccc(Nc2nc(-c3ccc(C(F)(F)F)cc3)cs2)cc1 [SR-35733, N-(4-(Methylsulfonyl)phenyl)-4-(4-(trifluoromethyl)phenyl)thiazol-2-amine]
EC50 [1]: > 500 nM
Stabilty in human microsomes ≥ 15 minutes [2]: yes

COc1cc(-c2csc(Nc3ccc(S(C)(=O)=O)c(Cl)c3)n2)ccn1 [SR-34993, N-(3-Chloro-4-(methylsulfonyl)phenyl)-4-(2-methoxypyridin-4-yl)thiazol-2-amine]
EC50 [1]: 125 nM
Stabilty in human microsomes ≥ 15 minutes [2]: yes

CC(C)c1ccc(-c2csc(Nc3ccc(S(C)(=O)=O)cc3)n2)cc1 [SR-35789, 4-(4-Isopropylphenyl)-N-(4-(methylsulfonyl)phenyl)thiazol-2-amine]
EC50 [1]: > 500 nM
Stabilty in human microsomes ≥ 15 minutes [2]: yes
